Reference: patent US20220080053A1, “USE OF ANTI-CEACAM5 IMMUNOCONJUGATES FOR TREATING LUNG CANCER” (SANOFI, priority 2019, published 2022)

T1: human CEACAM5 (Homo sapiens, UniProt P06731)
T1 construct: soluble recombinant CEACAM5 as capture antigen
T1 sequence (P06731 35-685 limits assumed): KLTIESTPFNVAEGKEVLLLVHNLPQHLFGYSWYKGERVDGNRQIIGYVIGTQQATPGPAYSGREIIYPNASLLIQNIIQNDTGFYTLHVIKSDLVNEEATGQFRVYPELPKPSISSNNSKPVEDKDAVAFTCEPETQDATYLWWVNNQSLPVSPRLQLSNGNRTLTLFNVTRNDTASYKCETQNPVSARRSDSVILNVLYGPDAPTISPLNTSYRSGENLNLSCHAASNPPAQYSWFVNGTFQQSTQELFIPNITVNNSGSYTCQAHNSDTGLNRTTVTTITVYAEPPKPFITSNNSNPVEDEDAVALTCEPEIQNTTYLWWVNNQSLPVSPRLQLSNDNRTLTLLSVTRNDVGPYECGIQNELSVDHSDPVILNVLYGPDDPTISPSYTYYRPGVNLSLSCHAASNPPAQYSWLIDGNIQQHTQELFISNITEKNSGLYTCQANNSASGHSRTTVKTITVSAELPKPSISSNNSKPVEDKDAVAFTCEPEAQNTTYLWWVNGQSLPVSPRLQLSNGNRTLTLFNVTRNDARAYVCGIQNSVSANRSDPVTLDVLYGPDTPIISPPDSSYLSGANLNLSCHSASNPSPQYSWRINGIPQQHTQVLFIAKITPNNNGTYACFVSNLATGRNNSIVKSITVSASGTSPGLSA

B1: Mab2K52R: variant of antibody MAb2 generated by introducing a K52R substitution in the CDR2-L (antibody, V domains shown)
VH: EVQLQESGGVLVKPGGSLKLSCAASGFVFSSYDMSWVRQTPEKRLEWVAYISSGGGITYFPDTVQGRFTVSRDNAKNTLYLQMNSLKSEDTAIYYCAAHYFGSSGPFAYWGQGTLVTVSA
VL: DIQMTQSPASLSASVGETVTITCRASENIFSYLAWYQQKQGKSPQLLVYNTRTLAEGVPSRFSGSGSGTQFSLKINSLQPEDFGSYYCQHHYGTPFTFGSGTKLEIK

Key:
[1] = test system: Macaca fascicularis CEACAM5; conditions: cited from earlier work
Sequence of Macaca fascicularis CEACAM5 (as listed by the source): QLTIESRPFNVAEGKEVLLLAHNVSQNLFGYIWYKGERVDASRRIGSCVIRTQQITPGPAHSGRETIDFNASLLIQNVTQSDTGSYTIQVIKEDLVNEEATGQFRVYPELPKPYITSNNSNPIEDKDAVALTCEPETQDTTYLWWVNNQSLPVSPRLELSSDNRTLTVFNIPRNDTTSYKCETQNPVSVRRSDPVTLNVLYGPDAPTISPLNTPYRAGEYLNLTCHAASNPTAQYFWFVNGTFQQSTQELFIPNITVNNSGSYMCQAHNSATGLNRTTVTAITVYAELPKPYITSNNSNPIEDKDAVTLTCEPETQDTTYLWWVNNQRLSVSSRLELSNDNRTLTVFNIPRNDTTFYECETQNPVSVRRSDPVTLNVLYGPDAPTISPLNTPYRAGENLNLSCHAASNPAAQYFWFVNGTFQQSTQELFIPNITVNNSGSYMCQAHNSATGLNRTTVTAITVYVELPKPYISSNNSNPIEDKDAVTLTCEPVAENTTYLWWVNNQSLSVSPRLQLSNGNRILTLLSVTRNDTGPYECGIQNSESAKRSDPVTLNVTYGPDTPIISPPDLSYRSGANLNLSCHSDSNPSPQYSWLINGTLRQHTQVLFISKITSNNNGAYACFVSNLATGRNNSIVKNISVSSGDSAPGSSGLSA

[2] = test system: other CEACAM family members; conditions: cited from earlier work
human CEACAM5 = target: T1, human CEACAM5; test: Affinity for human CEACAM5; type: binding
Source text: (§1) In an attempt to produce new antibodies against CEACAM5 surface protein with optimal characteristics for therapeutic purposes, mice were immunized with recombinant proteins and with tumour cells. They have screened hundreds of hybridoma using ELISA on several recombinant proteins of the CEACAM family, and flow cytometry with relevant cell lines, in order to select only immunoglobulins (IgGs) with the advantageous profile. Unexpectedly, they were able to select hybridoma clones and produce corresponding mature IgGs that comprise all of the desired features. […] In a cellular context, these antibodies display high affinity for tumor cells (in the nano-molar range). […] It can be experimentally assessed by a variety of known methods, such as measuring association and dissociation rates with surface plasmon resonance or measuring the EC50 (or apparent KD) in an immunochemical assay (ELISA, FACS). In these assays, the EC50 is the concentration of the antibody which induces a response halfway between the baseline and maximum after some specified exposure time on a defined concentration of antigen by ELISA (enzyme-linked immuno-sorbent assay) or cell expressing the antigen by FACS (Fluorescence Activated Cell Sorting). Affinity for human CEACAM5 or for Macaca fascicularis CEACAM5 may be determined as the EC50 value in an ELISA using soluble recombinant CEACAM5 as capture antigen.

[3] = test system: Macaca fascicularis CEACAM5; test: Affinity for Macaca fascicularis CEACAM5; type: binding
Source text: as §1

| Molecule | cross-reaction with CEACAM5 from Macaca fascicularis [1] | binding to related antigens / other CEACAM family members [2] | affinity for human CEACAM5 compared with MAb2 (human CEACAM5) | affinity for Macaca fascicularis CEACAM5 compared with MAb2 [3] |
| --- | --- | --- | --- | --- |
| labetuzumab: Immunomedics anti-human CEACAM5 antibody used in clinical trials | not cross-reacting | not to bind |  |  |
| B1 |  |  | essentially the same affinity | essentially the same affinity |
